Source: PMC8397297 (ACS Chemical Neuroscience, 2021)
Read-outs that look alike come from different tables or passages of the source.

Experiments:
mGAT2 [1] = molecular target: T1, mGAT2 (Mus musculus, UniProt P31651); conditions: cited from earlier work; for remaining [3H]GABA uptake mGAT2: 100 μM inhibitor
T1 construct: expressed in transfected cells; host or cells: HEK-293
T1 sequence (P31651 1-614): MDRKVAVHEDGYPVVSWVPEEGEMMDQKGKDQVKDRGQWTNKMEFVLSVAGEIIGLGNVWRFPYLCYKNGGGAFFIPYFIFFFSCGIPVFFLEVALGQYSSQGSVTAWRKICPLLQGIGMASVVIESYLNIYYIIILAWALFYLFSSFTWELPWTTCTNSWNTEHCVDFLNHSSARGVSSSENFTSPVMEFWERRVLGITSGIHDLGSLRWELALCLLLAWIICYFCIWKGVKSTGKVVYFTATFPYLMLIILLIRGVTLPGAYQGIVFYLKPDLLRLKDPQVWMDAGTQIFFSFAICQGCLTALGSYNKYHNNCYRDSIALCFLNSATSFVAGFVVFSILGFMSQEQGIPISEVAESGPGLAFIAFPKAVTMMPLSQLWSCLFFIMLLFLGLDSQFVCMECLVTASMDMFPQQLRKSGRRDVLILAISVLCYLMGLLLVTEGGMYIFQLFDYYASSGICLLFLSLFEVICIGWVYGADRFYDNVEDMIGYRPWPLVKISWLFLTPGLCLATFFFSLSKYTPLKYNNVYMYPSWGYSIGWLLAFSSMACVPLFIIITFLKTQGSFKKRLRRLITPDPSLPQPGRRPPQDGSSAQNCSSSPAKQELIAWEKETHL

mGAT3 [2] = molecular target: T2, mGAT3 (Mus musculus, UniProt P31649); conditions: cited from earlier work
T2 construct: expressed in transfected cells; host or cells: HEK-293
T2 sequence (P31649 1-602): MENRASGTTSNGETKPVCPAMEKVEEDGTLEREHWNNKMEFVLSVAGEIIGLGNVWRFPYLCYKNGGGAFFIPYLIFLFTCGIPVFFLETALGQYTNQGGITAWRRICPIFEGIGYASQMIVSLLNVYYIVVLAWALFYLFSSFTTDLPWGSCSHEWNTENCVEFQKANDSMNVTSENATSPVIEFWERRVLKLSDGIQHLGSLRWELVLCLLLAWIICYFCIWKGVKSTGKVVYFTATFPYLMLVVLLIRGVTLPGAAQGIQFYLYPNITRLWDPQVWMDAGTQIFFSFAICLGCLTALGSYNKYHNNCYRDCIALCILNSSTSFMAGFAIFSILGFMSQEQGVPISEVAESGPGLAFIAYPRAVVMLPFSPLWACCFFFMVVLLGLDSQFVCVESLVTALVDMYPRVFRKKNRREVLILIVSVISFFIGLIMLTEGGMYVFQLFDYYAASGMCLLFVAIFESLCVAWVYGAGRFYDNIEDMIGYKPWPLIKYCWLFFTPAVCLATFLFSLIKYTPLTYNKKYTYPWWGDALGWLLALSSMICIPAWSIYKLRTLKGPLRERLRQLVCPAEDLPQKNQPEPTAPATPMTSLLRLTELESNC

mGAT4 [3] = molecular target: T3, mGAT4 (Mus musculus, UniProt P31650); conditions: cited from earlier work
T3 construct: expressed in transfected cells; host or cells: HEK-293
T3 sequence (P31650 1-627): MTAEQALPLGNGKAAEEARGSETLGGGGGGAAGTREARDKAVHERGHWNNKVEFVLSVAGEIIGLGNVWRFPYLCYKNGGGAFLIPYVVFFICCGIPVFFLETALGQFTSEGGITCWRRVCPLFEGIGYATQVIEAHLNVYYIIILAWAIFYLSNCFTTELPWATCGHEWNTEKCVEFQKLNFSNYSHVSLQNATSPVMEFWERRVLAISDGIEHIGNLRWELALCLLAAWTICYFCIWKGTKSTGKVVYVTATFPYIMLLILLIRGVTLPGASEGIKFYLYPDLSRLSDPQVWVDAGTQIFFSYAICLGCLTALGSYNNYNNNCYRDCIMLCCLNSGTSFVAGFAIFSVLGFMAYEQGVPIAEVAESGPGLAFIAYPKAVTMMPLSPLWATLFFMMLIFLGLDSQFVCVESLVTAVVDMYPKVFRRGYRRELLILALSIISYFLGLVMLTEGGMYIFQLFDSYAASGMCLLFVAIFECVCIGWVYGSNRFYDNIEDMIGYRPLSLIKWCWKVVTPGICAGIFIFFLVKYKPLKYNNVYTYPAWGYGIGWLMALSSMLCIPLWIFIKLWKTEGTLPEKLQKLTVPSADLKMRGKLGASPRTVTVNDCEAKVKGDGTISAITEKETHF

mGAT1 [4] = molecular target: T4, mGAT1 (Mus musculus, UniProt P31648); conditions: Figure 2; cited from earlier work
T4 construct: expressed in transfected cells; host or cells: HEK-293

mGAT1 [5] = molecular target: T4, mGAT1; conditions: 100 μM inhibitor; cited from earlier work
mGAT3 [6] = molecular target: T2, mGAT3; assay: [3H]GABA uptake assay in HEK-293 cells stably expressing mGAT3; assay type: cell-based; conditions: for remaining [3H]GABA uptake mGAT3: in the presence of 100 μM inhibitor; for IC50: [3H]GABA uptake, read-out: pIC50 ± SEM mGAT3 (converted)
mGAT1 [7] = molecular target: T4, mGAT1; assay: [3H]GABA uptake assay in HEK-293 cells stably expressing mGAT1; assay type: cell-based; conditions: for remaining [3H]GABA uptake mGAT1: in the presence of 100 μM inhibitor; for IC50: [3H]GABA uptake, read-out: pIC50 ± SEM mGAT1 (converted)
mGAT1 [8] = molecular target: T4, mGAT1; assay: competitive MS binding assay with NO711 as unlabeled marker (LC-ESI-MS/MS); conditions: for remaining NO711 binding mGAT1: in the presence of 100 μM inhibitor
Outline: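 Competitive MS binding with unlabeled NO711 as marker, quantified by LC–ESI-MS/MS. Compounds screened at 100 μM for inhibition of marker binding.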

mGAT2 [9] = molecular target: T1, mGAT2; assay: [3H]GABA uptake assay in HEK-293 cells stably expressing mGAT2; assay type: cell-based; conditions: for remaining [3H]GABA uptake mGAT2: in the presence of 100 μM inhibitor; for IC50: [3H]GABA uptake, read-out: pIC50 ± SEM mGAT2 (converted)
mGAT4 [10] = molecular target: T3, mGAT4; assay: [3H]GABA uptake assay in HEK-293 cells stably expressing mGAT4; assay type: cell-based; conditions: for remaining [3H]GABA uptake mGAT4: in the presence of 100 μM inhibitor; for IC50: [3H]GABA uptake, read-out: pIC50 ± SEM mGAT4 (converted)

Structure (SMILES) | remaining [3H]GABA uptake mGAT1 (mGAT1 [7]) | remaining NO711 binding mGAT1 (mGAT1 [8]) | remaining [3H]GABA uptake mGAT2 (mGAT2 [9]) | IC50 (mGAT3 [6]) [µM] | IC50 (mGAT4 [10]) [µM] | other results
COc1ccc(C(OCCN2CCC[C@H](C(=O)O)C2)(c2ccc(OC)cc2)c2ccc(OC)cc2)cc1 [(S)-SNAP-5114, (S)-1-{2-[Tris(4-methoxyphenyl)methoxy]ethyl}piperidine-3-carboxylic acid] | – | – | – | – | – | remaining [3H]GABA uptake mGAT2 (mGAT2 [1]): 100 μM: 56%; mGAT2 % (100μM) (mGAT2 [1]): 56%
O=C(O)[C@@H]1CCCN(CCC#Cc2ccccc2-c2ccc(F)cc2Cl)C1 [Compound 7] | – | – | – | – | – | pIC50 mGAT3 (mGAT3 [2]; Figure 2): 4.56; pIC50 mGAT4 (mGAT4 [3]; Figure 2): 4.29; pIC50 mGAT1 (mGAT1 [4]): 7.68; mGAT2 % (100μM) (mGAT2 [1]): 55%
COc1ccc(C(OCCN2CCC[C@H](C(=O)O)C2)(c2ccc(OC)cc2)c2ccc(-c3ccc(C=O)cc3)cc2)cc1 [Compound 11] | – | – | – | – | – | pIC50 mGAT3 (mGAT3 [2]; Figure 2): 5.16; mGAT2 % (100μM) (mGAT2 [1]): 73%
O=C1Nc2ccc(-c3cccs3)cc2C1=O [Compound 12] | – | – | – | – | – | pIC50 mGAT1 (mGAT1 [4]): < 3; pIC50 mGAT2 (mGAT2 [1]; Figure 2): 3.21
Cc1ccsc1C(=CCCN(C)C(CCO)C(=O)NCc1ccccc1Cl)c1sccc1C (stereo not drawn) [Compound 13] | – | – | – | – | – | pIC50 mGAT3 (mGAT3 [2]; [3H]GABA uptake): 5.31 ± 0.04; remaining NO711 binding mGAT1 (mGAT1 [5]): 100 μM: 77%; pIC50 mGAT2 (mGAT2 [1]; [3H]GABA uptake): 4.98 ± 0.05
CCC(C(=O)NCc1ccccc1Cl)N1CCC(=C(c2sccc2C)c2sccc2C)CC1 (stereo not drawn) [Compound 64b, 2-(4-(Bis(3-methylthiophen-2-yl)methylene)piperidin-1-yl)-N-(2-chlorobenzyl)butanamide] | 100 μM: 66% | 100 μM: 108% | 100 μM: 101% | – | – | remaining [3H]GABA uptake mGAT3 (mGAT3 [6]): 100 μM: 61%; remaining [3H]GABA uptake mGAT4 (mGAT4 [10]): 100 μM: 64%
CC(C(=O)NCc1ccccc1)N(C)CCON=C(c1ccccc1)c1ccccc1 (stereo not drawn) [Compound 65, N-Benzyl-2-((2-(((diphenylmethylene)amino)oxy)ethyl)(methyl)amino)propanamide] | – | 100 μM: 104% | – | 13.8 | 26.3 | IC50 (mGAT1 [7]): 58.9 µM; IC50 (mGAT2 [9]): 26.3 µM
CCC(C(=O)NCc1ccccc1)N(C)CCON=C(c1ccccc1)c1ccccc1 (stereo not drawn) [Compound 66a, N-Benzyl-2-((2-(((diphenylmethylene)amino)oxy)ethyl)(methyl)amino)butanamide] | 100 μM: 50% | 100 μM: 104% | 100 μM: 55% | 16.6 | 13.8 | –
CCC(C(=O)NCc1ccccc1Cl)N(C)CCON=C(c1ccccc1)c1ccccc1 (stereo not drawn) [Compound 66b, N-(2-Chlorobenzyl)-2-((2-(((diphenylmethylene)amino)oxy)ethyl)(methyl)amino)butanamide] | 100 μM: 69% | 100 μM: 107% | 100 μM: 59% | 45.7 | – | remaining [3H]GABA uptake mGAT4 (mGAT4 [10]): 100 μM: 50%
Cc1ccsc1C(=CCCN(C)C(C)C(=O)NCc1ccccc1)c1sccc1C (stereo not drawn) [Compound 67, N-Benzyl-2-((4,4-bis(3-methylthiophen-2-yl)but-3-en-1-yl)(methyl)amino)propanamide] | – | 100 μM: 83% | – | 13.5 | 12 | IC50 (mGAT1 [7]): 24.5 µM; IC50 (mGAT2 [9]): 13.2 µM
CCC(C(=O)NCc1ccccc1)N(C)CCC=C(c1sccc1C)c1sccc1C (stereo not drawn) [Compound 68, N-Benzyl-2-((4,4-bis(3-methylthiophen-2-yl)but-3-en-1-yl)(methyl)amino)butanamide] | – | 100 μM: 81% | – | 30.9 | 12.9 | IC50 (mGAT1 [7]): 26.9 µM; IC50 (mGAT2 [9]): 39.8 µM
CCOC(=O)[C@H](C)N(C)CCC=C1c2ccccc2C=Cc2ccccc21 [Compound 71, Ethyl N-(3-(5H-Dibenzo[a,d][7]annulen-5-ylidene)propyl)-N-methylalaninate] | 100 μM: 52% | 100 μM: 103% | 100 μM: 54% | 21.9 | 63.1 | –
C[C@@H](C(=O)OCc1ccccc1)N(C)CCC=C1c2ccccc2C=Cc2ccccc21 [Compound 72, Benzyl N-(3-(5H-Dibenzo[a,d][7]annulen-5-ylidene)propyl)-N-methylalaninate] | 100 μM: 98% | 100 μM: 109% | 100 μM: 63% | – | – | remaining [3H]GABA uptake mGAT3 (mGAT3 [6]): 100 μM: 86%; remaining [3H]GABA uptake mGAT4 (mGAT4 [10]): 100 μM: 97%
CCOC(=O)C(C)N(C)CCC=C(c1sccc1C)c1sccc1C (stereo not drawn) [Compound 73, Ethyl 2-((4,4-Bis(3-methylthiophen-2-yl)but-3-en-1-yl)(methyl)amino)propanoate] | 100 μM: 55% | 100 μM: 94% | 100 μM: 52% | 25.1 | 52.5 | –
C[C@@H](C(=O)O)N(C)CCC=C1c2ccccc2C=Cc2ccccc21 [Compound 74, N-(3-(5H-Dibenzo[a,d][7]annulen-5-ylidene)propyl)-N-methylalanine] | 100 μM: 55% | – | 100 μM: 55% | – | – | remaining [3H]GABA uptake mGAT3 (mGAT3 [6]): 100 μM: 62%; Ki (mGAT1 [8]; MS binding assay, read-out: pKi ± SEM mGAT1 (converted)): 28.8 µM; remaining [3H]GABA uptake mGAT4 (mGAT4 [10]): 100 μM: 77%
Cc1ccsc1C(=CCCN(C)C(C)C(=O)O)c1sccc1C (stereo not drawn) [Compound 75, 2-((4,4-Bis(3-methylthiophen-2-yl)but-3-en-1-yl)(methyl)amino)propanoic Acid] | 100 μM: 71% | 100 μM: 81% | 100 μM: 59% | – | – | remaining [3H]GABA uptake mGAT3 (mGAT3 [6]): 100 μM: 52%; remaining [3H]GABA uptake mGAT4 (mGAT4 [10]): 100 μM: 60%
O=C(O)C1=CCCN(CCO/N=C/c2ccccc2-c2ccc(Cl)cc2Cl)C1 [DDPM-2571] | – | – | – | – | – | pIC50 mGAT3 (mGAT3 [2]; [3H]GABA uptake): 4.35
Cc1ccsc1C(=CCCN1CCC[C@@H](C(=O)O)C1)c1sccc1C [tiagabine, (R)-1-[4,4-bis(3-methyl-2-thienyl)-3-butenyl]-3-piperidinecarboxylic acid] | – | – | – | – | – | remaining [3H]GABA uptake mGAT3 (mGAT3 [2]; 100 μM inhibitor): 100 μM: 64%; mGAT3 % (100μM) (mGAT3 [2]; 100μM): 64%; remaining [3H]GABA uptake mGAT4 (mGAT4 [3]; 100 μM inhibitor): 100 μM: 73%; mGAT4 % (100μM) (mGAT4 [3]; 100μM): 73%; remaining [3H]GABA uptake mGAT2 (mGAT2 [1]): 100 μM: 52%
NCCC(=O)O [β-alanine] | – | – | – | – | – | pIC50 mGAT2 (mGAT2 [1]; Figure 2): 2.96
